Here are results for 1 compound from ChEMBL document CHEMBL2073989, “Immunohistochemical distribution and functional characterization of an organic anion transporting polypeptide 2 (oatp2)” (FEBS Lett, 1999).

Structures are written as SMILES.

The data set deals with T1, Solute carrier organic anion transporter family member 1A4 (Rattus norvegicus, UniProt O35913).
T1 sequence (O35913 whole entry): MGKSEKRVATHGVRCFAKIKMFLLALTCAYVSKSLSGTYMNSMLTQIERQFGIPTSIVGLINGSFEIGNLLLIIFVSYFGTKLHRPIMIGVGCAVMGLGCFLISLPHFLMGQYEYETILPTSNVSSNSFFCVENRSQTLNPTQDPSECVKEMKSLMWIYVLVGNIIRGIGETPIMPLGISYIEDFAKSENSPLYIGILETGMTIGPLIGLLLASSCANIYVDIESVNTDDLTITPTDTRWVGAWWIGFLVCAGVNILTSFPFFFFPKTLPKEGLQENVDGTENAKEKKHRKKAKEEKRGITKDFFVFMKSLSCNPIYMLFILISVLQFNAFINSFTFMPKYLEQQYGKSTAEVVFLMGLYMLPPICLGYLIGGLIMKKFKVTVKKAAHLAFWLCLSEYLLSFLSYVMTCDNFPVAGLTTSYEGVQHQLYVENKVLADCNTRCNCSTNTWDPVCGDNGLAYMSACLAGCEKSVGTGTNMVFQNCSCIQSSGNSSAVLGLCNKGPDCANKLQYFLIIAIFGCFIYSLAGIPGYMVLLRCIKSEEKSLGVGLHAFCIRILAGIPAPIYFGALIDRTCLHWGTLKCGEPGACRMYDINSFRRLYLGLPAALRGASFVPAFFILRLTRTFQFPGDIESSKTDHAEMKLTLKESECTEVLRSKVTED
Kind of data set: TP_TRANSPORTER: uptake in Xenopus laevis oocytes. It counts as functional, cell-based. Particulars: oocyte.

For `O=C(O)CCCC[C@@H]1SC[C@@H]2NC(=O)N[C@@H]21` [BIOTIN], the Activity result is “substrate [+]”.
